Test [1] deals with p38 MAPK, JNK/SAPK, AKT and ERK1/2. Put plainly: Western blot of MAPK and AKT activation in HNDFs. The format is cell-based, human. To be noted: ANM 10 μM or NAC 100 μM + HG 30 mM. As to the method:
Next, the possible upstream regulators of p53 activation are examined. Previous studies have shown that p38 MAPK mediated p53 activation in response to intracellular ROS generation. In FIG. 4F, this effect is further extended to its upstream regulator p38 MAPK.
Cells are lysed by either RIPA lysis buffer or nuclear and cytoplasmic extraction reagents (Thermo Fisher Scientific). Protein concentrations are determined by Bio-Rad protein assay reagent (Bio-Rad Laboratories, Hercules, Calif.). Equal amounts of protein samples (60 μg) are separated by 7-12% SDS-PAGE and the separated proteins are transferred onto polyvinylidene […] (PVDC) membrane overnight. The transferred protein membranes are blocked with 5% non-fat dried milk for 30 min, followed by incubation with specific primary antibodies overnight, and either horseradish peroxidase-conjugated goat anti-rabbit or anti-mouse antibodies for 2 h. The blots are detected using VL Chemi-Smart 3000 (Viogene Biotek, Sunnyvale, Calif.) with the enhanced chemiluminescence (ECL) western blotting reagent (Millipore, Billerica, Mass.).
On the technique in general: A western blot detects proteins with antibodies after separation by electrophoresis.

Another test concerns HNDFs. The test can be described thus: Intracellular ROS by flow cytometry (DCFH-DA) in HNDFs. The format is cell-based, human. The settings on record: 24 h; for intracellular ROS generation: ANM 10 μM or NAC 100 μM + HG 30 mM, HG alone 426.2%; for ROS generation, compound alone: ANM 10 μM or NAC 100 μM without HG. The procedure:
Next, please refer to FIG. 4A˜FIG. 4H, which are views showing HG-induced senescence inhibited by ANM in HNDFs. As shown in the figures, it is examined whether ANM inhibits HG-induced ROS generation. In FIG. 4A, HNDFs are incubated with ANM (10 μM) or NAC (100 μM) either in the presence or absence of HG (30 mM) for 24 h. The intracellular ROS level is determined by flow cytometry using DCH-DA flurogenic probe. […] As is shown, HNDFs are co-incubated with HG and ANM or NAC for 24 h, and intracellular ROS levels are measured by flow cytometry.
Moreover, in FIG. 6B, HNDFs are transfected with specific siRNA against Nrf2 or control siRNA. […] Intracellular ROS is measured by DCFH-DA assay.
Intracellular ROS accumulation is determined using the dye DCFH2-DA following a procedure described earlier. Briefly, HNDFs (1×10^5 cells/well) are seeded in 6-well plates and incubated with HG in the presence or absence of test samples for 24 h. At the end of the incubation, the culture supernatant is removed and cells are washed twice with PBS. DCFH2-DA […] is mixed with 500 μL MEM and added to the culture plate. After incubation for 30 minutes, cells are collected by trypsin and the fluorescence shift is quantified using a flow cytometer (Beckman Coulter). Data are acquired and analyzed using CXP software (Beckman Coulter).

The next test has as its system Nrf2. Put plainly: ARE luciferase reporter assay (Nrf2 transcriptional activity) in HNDFs. The format is cell-based, human. The settings on record: 6 h; for relative ARE luciferase activity, co-treated with HG: ANM 10 μM or NAC 100 μM + HG 30 mM, HG alone 2.5-fold; for relative ARE luciferase activity, compound alone: ANM 10 μM or NAC 100 μM, control 1-fold, HG 2.5-fold. As to the method:
Therefore, to determine whether ANM augments Nrf2 transcriptional activity, ARE-harboring luciferase reporter assay is used. In FIG. 5E, to determine the Nrf2 transcriptional activity, HNDFs are transiently transfected with ARE promoter construct using lipofectamine and incubated with ANM (10 μM) or NAC (100 μM) in the presence or absence of HG (30 mM) for 6 h. Cell lysates are mixed with luciferase reagents and quantified using an illuminometer. Relative ARE promoter activity is calculated by dividing the relative luciferace unit (RLU) of treated cells by RLU of untreated cells (NG).
Activation of P13K/AKT and mitogen-activated protein kinases (MAPKs), including ERK1/2, JNK/SAPK and p38 MAPK, facilitates Nrf2 transcriptional activation in a variety of human cell lines. […] To elucidate the upstream signaling events involved in ANM-induced Nrf2 transcriptional activity, cells are pre-incubated with pharmacological inhibitors of P13K/AKT (LY294002), ERK1/2 (PD98059), SAPK/JNK (SP600125) and p38MAPK (SB203580) for 2 h and treated with ANM for 6 h in the presence of HG. In FIG. 5G, HNDFs are pre-incubated with AKT, ERK1/2, JNK/SAPK and p38 MAPK inhibitors, including LY294002 (LY, 30 μM), PD98059 (PD, 30 μM), SP600125 (SP, 30 μM) and SB203580 (SB, 30 μM), respectively, for 2 h and then incubated with ANM (10 μM) in the presence of HG (30 mM) for 6 h. Cytoplasmic and nuclear fractions are prepared and subjected to western blot analysis. GAPDH and histone H3 are served as internal controls for the cytoplasmic and nuclear fraction, respectively.
ARE promoter activity is measured using a dual-luciferase reporter assay system (Promega, Madison, Wis.). […] Cells are then transfected with ARE plasmid (Qiagen, Hilden, Germany) using Lipofectamine 2000 (Invitrogen) and incubated for 36 h. […] The cell lysate is prepared and incubated with luciferase agents and the relative luminescence intensity is quantified using a spectrophotometer (Hidex Oy, Turku, Finland).
A general note: Reporter assays use an easily measured gene product as a stand-in for the process of interest.

The nature of test [2]: Cell-free DPPH free-radical scavenging assay. The format is biochemical. The settings on record: cell-free system. The procedure: Therefore, next to determine whether ANM acts directly as a free-radical scavenger, a cell-free DPPH free-radical scavenging assay is performed. In FIG. 5A, to determine the free-radical scavenging effect of ANM, cell-free DPPH assay is performed.

For the next test, the system named is SMP30. Put plainly: SMP30 immunofluorescence in HNDFs. The format is cell-based, human. To be noted: ANM 10 μM or NAC 100 μM + HG 30 mM, 72 h. As to the method:
In FIG. 4C, SMP30 expression provided by ANM is examined. HNDFs are incubated with ANM (10 μM) or NAC (100 μM) in the presence or absence of HG (30 mM) for 72 h. The protein expression of SMP30 is measured by immunofluorescence using SMP30 specific primary antibody and fluorescein isothiocyanate-conjugated secondary antibody (green). The cellular localization of SMP30 is photographed using a fluorescence microscope. 4′,6-diamidino-2-phenylindole (DAPI) (1 μM) is used to stain the nucleus.
HNDFs at a density of 1×10^4 cells/well are cultured in an eight-well glass Nunc Lab-Tek chamber (ThermoFisher Scientific, Waltham, Mass.). Cells are treated with ANM or NAC in the presence or absence of HG for 2-72 h. After incubation, culture medium is removed and cells are fixed in 4% paraformaldehyde for 15 min, permeabilized with 0.1% Triton X-100 for 10 min, washed and blocked with 10% FBS in PBS, and then incubated overnight with the corresponding primary antibodies in 1.5% FBS. The cells are then incubated with the fluorescein isothiocyanate (FITC)-conjugated secondary antibody (Alexa fluor 488, ThermoFisher Scientific) for another 1 h in 6% bovine serum albumin (BSA). Next, the cells are stained with 1 μg/mL 4′,6-diamidino-2-phenylindole (DAPI, Cell Signaling Technology) for 5 min, washed with PBS, and visualized using a fluorescence microscope (Motic Electric Group) at 40× magnification.

“Also recorded” adds a separate entry of the source.

As to `C=C(CCC(C)C1CCC2C3=C(C(=O)C(O)C21C)C1(C)CCC(O)C(C)C1CC3)C(C)C(=O)O` (centres unmarked) [ANM, antcin M], in test [1], the “HG-induced JNK/SAPK activation” value is “significantly prevents”; the “HG-induced activation of p38 MAPK” value is “significantly prevents”; the “HG-mediated decrease in AKT and ERK1/2 activity (phosphorylation)” value is listed as “significantly rescues; also recorded: significantly blocked”. In addition, in the test with HNDFs (ANM 10 μM + HG), the “HG-induced ROS generation, scrambled siRNA cells” value is listed as “significantly inhibits” and the “ROS generation, siNrf2 transfected cells” value is given as “increased ROS generation”. Moreover, in the test on HNDFs, the “intracellular ROS generation” value is 200.8% and the “ROS generation, compound alone” value was “does not significantly increase”. In addition, in the test with Nrf2, the “relative ARE luciferase activity, co-treated with HG” value is recorded as 8.5 fold and the “relative ARE luciferase activity, compound alone” value came out at 5.8 fold. Besides, the “free-radical scavenging effect (DPPH)” value in test [2] is reported as “fails to scavenge free radicals”. In addition, in the test on SMP30, the “HG-induced reduction in SMP30 (immunofluorescence)” value is listed as “significantly prevented”.
Turning to `CC(=O)N[C@@H](CS)C(=O)O` [NAC, N-acetylcysteine, reference compound], in test [1], the “HG-induced JNK/SAPK activation” value is “significantly prevents”; the “HG-induced activation of p38 MAPK” value is reported as “significantly prevents”; the “HG-mediated decrease in AKT and ERK1/2 activity (phosphorylation)” value was “significantly rescues; also recorded: significantly blocked”. In the test on HNDFs, the “intracellular ROS generation” value was found to be 176.58% and the “ROS generation, compound alone” value is reported as “does not significantly increase”. In the test on Nrf2, the “relative ARE luciferase activity, co-treated with HG” value was 8.2 fold and the “relative ARE luciferase activity, compound alone” value is listed as 6.3 fold. Moreover, the “free-radical scavenging effect (DPPH)” value in test [2] is given as “potent free-radical scavenging effect”. Moreover, the “HG-induced reduction in SMP30 (immunofluorescence)” value in the test on SMP30 is reported as “partially prevented”.

The values above are taken from US20180318199A1, “Pharmaceutical Composition Having Anti-Aging Properties against High-Glucose” (TAIWAN LEADER BIOTECH CORP., priority 2017, published 2018).
